In ChEMBL document CHEMBL1201862, “PubChem BioAssay data set” (2004):
Active and inactive are the calls of the source.

Experiments:
Jurkat = assay: antigen receptor-induced NF-kB inhibitors, dose response, Jurkat, luciferase reporter, luminescence, B- and T-cell (AID 489004); format: functional, cell-based; conditions: Homo sapiens;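 note: NF-kB luciferase reporter Jurkat cells stimulated with PMA plus ionomycin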
[1] = cytotoxicity in HEK-293T NF-kB-Luc cells, dose response, cytotoxicity control for B/T-cell NF-kB inhibitor project, cell-based, uHTS hits (AID 489019); format: functional;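 note: IC50 reflects cytotoxicity as loss of cell viability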
Cytochrome P450 3A4 [2] = biological target: T1, Cytochrome P450 3A4 (Homo sapiens, UniProt P08684);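 note: CYP3A4 tested as one member of a cytochrome P450 panel screen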
T1 sequence (P08684 whole entry): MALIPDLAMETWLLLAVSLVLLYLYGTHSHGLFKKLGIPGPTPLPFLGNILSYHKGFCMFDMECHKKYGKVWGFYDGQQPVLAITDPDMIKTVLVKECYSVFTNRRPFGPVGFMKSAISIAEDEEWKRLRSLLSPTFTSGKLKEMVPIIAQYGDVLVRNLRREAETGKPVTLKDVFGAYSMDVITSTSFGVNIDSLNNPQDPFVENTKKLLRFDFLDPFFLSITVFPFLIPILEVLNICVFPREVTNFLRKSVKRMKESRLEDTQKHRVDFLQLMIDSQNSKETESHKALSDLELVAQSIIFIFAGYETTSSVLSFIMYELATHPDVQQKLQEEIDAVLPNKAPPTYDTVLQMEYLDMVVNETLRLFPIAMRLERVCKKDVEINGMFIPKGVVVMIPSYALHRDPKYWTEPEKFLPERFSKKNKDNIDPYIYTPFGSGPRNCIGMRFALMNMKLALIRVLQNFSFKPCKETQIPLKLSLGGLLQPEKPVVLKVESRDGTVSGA

Cytochrome P450 2D6 = Cytochrome P450 2D6 (Homo sapiens, UniProt P10635);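 note: CYP2D6 member of a cytochrome P450 panel assay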
[3] = cytotoxicity toward NIH3T3 fibroblasts, dose response, counter-screen, cell-based, ATP luminescence, mouse fibroblasts (AID 2010); format: functional; conditions: NIH3T3;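 note: cells exposed to compound for about 90 hours before reading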
[4] = biological target: T2, Polyadenylate-binding protein 1 (Homo sapiens, UniProt P11940); assay: PABP1 MLLE–PAM2 interaction inhibitors, dose response, miRNA deadenylation inhibitor project, biochemical, fluorescence polarization, Cy5-PAM2 peptide, secondary (AID 602260); format: functional; conditions: read-out: IC50_Mean
T2 sequence (P11940 whole entry): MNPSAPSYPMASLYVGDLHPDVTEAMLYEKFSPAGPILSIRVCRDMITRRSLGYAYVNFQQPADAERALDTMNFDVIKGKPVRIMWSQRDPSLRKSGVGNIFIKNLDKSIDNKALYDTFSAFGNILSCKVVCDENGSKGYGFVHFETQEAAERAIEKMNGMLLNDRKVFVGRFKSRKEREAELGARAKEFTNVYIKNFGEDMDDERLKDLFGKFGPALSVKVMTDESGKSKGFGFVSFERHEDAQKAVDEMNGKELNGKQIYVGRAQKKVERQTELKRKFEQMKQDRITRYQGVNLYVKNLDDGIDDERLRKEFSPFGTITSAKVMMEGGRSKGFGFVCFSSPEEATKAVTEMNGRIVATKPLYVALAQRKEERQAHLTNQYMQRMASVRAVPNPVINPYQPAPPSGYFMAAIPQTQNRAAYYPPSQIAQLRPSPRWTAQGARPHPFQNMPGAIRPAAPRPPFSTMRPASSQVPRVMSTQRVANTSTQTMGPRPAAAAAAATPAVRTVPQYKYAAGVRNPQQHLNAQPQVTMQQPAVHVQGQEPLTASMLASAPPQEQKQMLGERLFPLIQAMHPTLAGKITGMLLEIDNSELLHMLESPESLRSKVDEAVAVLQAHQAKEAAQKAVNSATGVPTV

[5] = inhibitors of intracellular T. cruzi replication, confirmation, NIH3T3 host cells, beta-gal luminescence (AID 2044); format: functional, cell-based;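 note: intracellular parasites grown in NIH/3T3 mouse fibroblasts as host cells; luminescent beta-galactosidase reporter signal from transgenic T. cruzi replicating inside host cells; inhibitors lower the luminescence signal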
Beta-galactosidase = Beta-galactosidase (Escherichia coli, UniProt Q8VNN2); assay: beta-galactosidase enzyme inhibitors and activators, dose response, artefact control for CCR6 antagonist project, biochemical, E. coli enzyme, set 3 (AID 504712); format: functional
Genome polyprotein = Genome polyprotein (dengue virus type 2, UniProt P29990); assay: Dengue-2 NS5 methyltransferase inhibitors, primary screen, biochemical, confirmation dose response (AID 588689); format: functional
Genome polyprotein, sequence (P29990 2492-3391 limits assumed): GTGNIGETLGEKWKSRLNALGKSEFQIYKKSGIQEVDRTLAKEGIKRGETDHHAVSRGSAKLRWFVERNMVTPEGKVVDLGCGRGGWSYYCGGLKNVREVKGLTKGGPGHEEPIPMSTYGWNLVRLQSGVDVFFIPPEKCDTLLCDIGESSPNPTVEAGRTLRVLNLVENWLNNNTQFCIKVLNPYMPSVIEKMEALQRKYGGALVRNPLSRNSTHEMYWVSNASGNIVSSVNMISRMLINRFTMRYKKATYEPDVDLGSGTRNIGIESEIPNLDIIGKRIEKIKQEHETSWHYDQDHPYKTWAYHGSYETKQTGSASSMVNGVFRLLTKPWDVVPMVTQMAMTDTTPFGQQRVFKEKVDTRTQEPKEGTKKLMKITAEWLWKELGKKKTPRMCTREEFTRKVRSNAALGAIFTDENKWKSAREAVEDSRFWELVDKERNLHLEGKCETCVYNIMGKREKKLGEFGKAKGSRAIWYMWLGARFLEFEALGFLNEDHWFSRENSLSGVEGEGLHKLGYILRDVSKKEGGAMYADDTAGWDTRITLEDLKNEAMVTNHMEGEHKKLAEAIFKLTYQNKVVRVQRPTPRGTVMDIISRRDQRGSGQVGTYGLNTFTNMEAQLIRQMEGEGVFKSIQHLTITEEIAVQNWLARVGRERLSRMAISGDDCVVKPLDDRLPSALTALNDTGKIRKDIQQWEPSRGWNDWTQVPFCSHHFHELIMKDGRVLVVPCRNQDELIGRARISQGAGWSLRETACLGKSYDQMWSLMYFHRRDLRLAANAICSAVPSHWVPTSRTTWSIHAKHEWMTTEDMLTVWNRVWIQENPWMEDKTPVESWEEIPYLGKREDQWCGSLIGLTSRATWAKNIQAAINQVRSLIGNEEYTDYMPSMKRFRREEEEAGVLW

[6] = biological target: T2, Polyadenylate-binding protein 1; assay: PABP1 MLLE–PAM2 binding inhibitor potency, dose response, biochemical, fluorescence polarization, FITC-PAM2 peptide (AID 602259); format: functional; conditions: read-out: IC50_Mean
[7] = biological target: Glucose-6-phosphate 1-dehydrogenase (Homo sapiens, UniProt P11413); assay: human G6PD enzyme inhibitors, dose response, selectivity assay for P. falciparum G6PD inhibitor project, biochemical, fluorescence (AID 504792); format: functional
Glucose-6-phosphate 1-dehydrogenase, sequence (P11413 whole entry): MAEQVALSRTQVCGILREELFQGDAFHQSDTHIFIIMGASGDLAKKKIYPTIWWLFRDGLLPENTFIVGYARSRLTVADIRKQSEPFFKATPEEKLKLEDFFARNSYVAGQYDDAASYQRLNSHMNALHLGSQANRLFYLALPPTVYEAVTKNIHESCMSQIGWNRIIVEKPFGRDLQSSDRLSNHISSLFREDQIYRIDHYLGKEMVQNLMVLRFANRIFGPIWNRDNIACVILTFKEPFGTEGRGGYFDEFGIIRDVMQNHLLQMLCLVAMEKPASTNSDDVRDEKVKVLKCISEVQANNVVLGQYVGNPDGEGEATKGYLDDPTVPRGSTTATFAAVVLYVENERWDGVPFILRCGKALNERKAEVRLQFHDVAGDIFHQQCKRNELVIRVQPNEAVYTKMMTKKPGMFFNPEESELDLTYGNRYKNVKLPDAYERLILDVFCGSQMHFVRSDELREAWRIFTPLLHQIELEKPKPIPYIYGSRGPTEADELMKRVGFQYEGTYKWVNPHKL

[8] = biological target: Sphingosine 1-phosphate receptor 4 (Homo sapiens, UniProt O95977); assay: Fluorescence dose response cell-based high throughput screening assay for agonists of the Sphingosine 1-Phosphate Receptor 4 (S1P4). [Related pubchem assays: 1509 (Primary screen.), 1523 (Confirmation screen in triplicates.)]; format: functional
[9] = biological target: Sphingosine 1-phosphate receptor 2 (Homo sapiens, UniProt O95136); assay: Dose Response Cell Based Assay for Agonists of the S1P2 Receptor. [Related pubchem assays: 729, 736, 843 ]; format: functional
[10] = biological target: Sphingosine 1-phosphate receptor 1 (Homo sapiens, UniProt P21453); assay: Fluorescence-based counterscreen assay for S1P4 agonists: Cell-based dose response high throughput screening assay to identify agonists of the Sphingosine 1-Phosphate Receptor 1 (S1P1). [Related pubchem assays (depositor defined):AID1509, AID1523, AID1801, AID463107, AID463118, AID463119, AID463122, AID463123, AID463129, AID463225, AID504400, AID504460]; format: functional
[11] = insulin promoter down-regulators in MIN6 cells, imaging, high-content screening, mouse beta cells (AID 1628); format: functional
[12] = cytotoxicity in MIN6 insulinoma cells, dose response, cytotoxicity control, cell-based, mouse insulinoma (AID 2122); format: functional;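 note: confirmatory high-throughput counterscreen run to flag cytotoxic compounds; mouse MIN-6 beta cells carrying an insulin promoter eGFP reporter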
[13] = biological target: Induced myeloid leukemia cell differentiation protein Mcl-1 (Homo sapiens, UniProt Q07820); format: functional
Induced myeloid leukemia cell differentiation protein Mcl-1, sequence (Q07820 whole entry): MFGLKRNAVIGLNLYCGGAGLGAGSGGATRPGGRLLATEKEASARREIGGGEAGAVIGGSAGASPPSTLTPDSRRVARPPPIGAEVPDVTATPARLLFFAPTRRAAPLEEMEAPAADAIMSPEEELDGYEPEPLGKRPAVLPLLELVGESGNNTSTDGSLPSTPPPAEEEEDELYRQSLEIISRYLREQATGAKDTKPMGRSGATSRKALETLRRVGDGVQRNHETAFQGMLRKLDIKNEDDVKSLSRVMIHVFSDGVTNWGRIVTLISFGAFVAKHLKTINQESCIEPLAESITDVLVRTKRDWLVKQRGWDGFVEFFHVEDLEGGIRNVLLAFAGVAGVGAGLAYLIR

Exodeoxyribonuclease V = Exodeoxyribonuclease V (Escherichia coli (strain K12), UniProt P04993+P07648+P08394); assay: E. coli RecBCD inhibitors, dose response, counter-screen for AddAB inhibitor project, absorbance, V66 E. coli, mutant T4 phage (AID 492957); format: functional, cell-based, Escherichia coli str. K-12 substr. MG1655
Paired box protein Pax-8 = Paired box protein Pax-8 (Homo sapiens, UniProt Q06710); assay: inhibitors of PAX8-driven TPO luciferase reporter, dose response, RMG-I cells, cherry-pick (AID 687027); format: functional, cell-based;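 note: luciferase reporter driven by Pax8 target thyroperoxidase promoter measured by SteadyGlo luminescence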
[14] = Counterscreen for AddAB inhibitors: absorbance-based bacterial cell-based high throughput dose response assay for inhibitors of bacterial viability. [Related pubchem assays (depositor defined):AID435030, AID449728, AID449731, AID488942, AID488955, AID488956]; format: functional
Cytochrome P450 2C9 = Cytochrome P450 2C9 (Homo sapiens, UniProt P11712)
Cytochrome P450 2C19 = Cytochrome P450 2C19 (Homo sapiens, UniProt P33261); assay: Cytochrome panel assay with activity outcomes. Panel member name: p450-cyp2c19 Compounds with AC50 equal or less than 10 uM are considered active; format: functional; conditions: read-out: AC50
Cytochrome P450 3A4 [15] = biological target: T1, Cytochrome P450 3A4; remark: listed apart in the source
[16] = biological target: T3, Dual specificity protein phosphatase 3 (Homo sapiens, UniProt P51452); assay: SAR VHR1 absorbance Assay for In Vitro dose response studies. [Related pubchem assays (depositor defined):AID1654, AID1661, AID1878, AID1992, AID2004]
T3 sequence (P51452 whole entry): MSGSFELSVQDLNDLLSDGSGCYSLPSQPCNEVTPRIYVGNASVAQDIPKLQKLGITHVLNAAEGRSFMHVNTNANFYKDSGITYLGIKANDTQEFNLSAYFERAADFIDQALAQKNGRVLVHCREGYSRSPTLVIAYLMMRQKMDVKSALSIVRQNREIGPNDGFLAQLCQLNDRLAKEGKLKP

[17] = biological target: Dual specificity protein phosphatase 6 (Rattus norvegicus, UniProt Q64346); format: functional;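 note: confirmatory in vitro dose-response testing of MKP-3 inhibition; recombinant His-tagged MKP-3 made in E. coli BL21 with OMFP substrate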
[18] = biological target: T3, Dual specificity protein phosphatase 3; assay: SAR VHR1 Fluorescent Assay for In Vitro dose response studies. [Related pubchem assays (depositor defined):AID1654, AID1661, AID1878, AID1992, AID2004, AID2070, AID2085]; format: functional
[19] = biological target: T4, Tyrosine-protein phosphatase non-receptor type 7 (Homo sapiens, UniProt P35236); assay: redox-dependent HePTP inhibition, mechanism study, biochemical, fluorescence (AID 2068); format: functional
T4 sequence (P35236 whole entry): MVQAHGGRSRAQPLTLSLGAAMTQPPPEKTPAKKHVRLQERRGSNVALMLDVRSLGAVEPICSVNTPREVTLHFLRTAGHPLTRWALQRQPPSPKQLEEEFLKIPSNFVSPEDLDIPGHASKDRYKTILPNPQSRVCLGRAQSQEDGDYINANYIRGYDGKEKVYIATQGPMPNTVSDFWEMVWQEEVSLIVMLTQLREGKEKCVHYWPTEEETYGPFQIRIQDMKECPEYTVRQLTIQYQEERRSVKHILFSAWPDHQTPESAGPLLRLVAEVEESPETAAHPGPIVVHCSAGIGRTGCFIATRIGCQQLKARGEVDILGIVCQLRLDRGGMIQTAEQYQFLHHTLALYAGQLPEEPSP

[20] = biological target: G-protein coupled receptor 55 (Homo sapiens, UniProt Q9Y2T6); assay: GPR55 antagonists, SAR follow-up, counter-screen for GPR35 antagonist project, imaging, image-based (AID 2397); format: functional
G-protein coupled receptor 55, sequence (Q9Y2T6 whole entry): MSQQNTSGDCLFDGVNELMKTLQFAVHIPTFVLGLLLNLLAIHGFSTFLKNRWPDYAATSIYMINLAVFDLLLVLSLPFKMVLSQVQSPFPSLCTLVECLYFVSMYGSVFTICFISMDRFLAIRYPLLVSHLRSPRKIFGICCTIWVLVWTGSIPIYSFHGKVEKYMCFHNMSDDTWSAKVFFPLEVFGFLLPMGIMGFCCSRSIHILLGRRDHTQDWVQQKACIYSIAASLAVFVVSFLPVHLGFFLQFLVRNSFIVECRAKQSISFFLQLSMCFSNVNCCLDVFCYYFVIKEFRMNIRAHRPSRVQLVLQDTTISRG

[21] = biological target: T5, Intestinal-type alkaline phosphatase (Mus musculus, UniProt P24822); assay: PubChem AID 488875; format: functional
T5 sequence (P24822 whole entry): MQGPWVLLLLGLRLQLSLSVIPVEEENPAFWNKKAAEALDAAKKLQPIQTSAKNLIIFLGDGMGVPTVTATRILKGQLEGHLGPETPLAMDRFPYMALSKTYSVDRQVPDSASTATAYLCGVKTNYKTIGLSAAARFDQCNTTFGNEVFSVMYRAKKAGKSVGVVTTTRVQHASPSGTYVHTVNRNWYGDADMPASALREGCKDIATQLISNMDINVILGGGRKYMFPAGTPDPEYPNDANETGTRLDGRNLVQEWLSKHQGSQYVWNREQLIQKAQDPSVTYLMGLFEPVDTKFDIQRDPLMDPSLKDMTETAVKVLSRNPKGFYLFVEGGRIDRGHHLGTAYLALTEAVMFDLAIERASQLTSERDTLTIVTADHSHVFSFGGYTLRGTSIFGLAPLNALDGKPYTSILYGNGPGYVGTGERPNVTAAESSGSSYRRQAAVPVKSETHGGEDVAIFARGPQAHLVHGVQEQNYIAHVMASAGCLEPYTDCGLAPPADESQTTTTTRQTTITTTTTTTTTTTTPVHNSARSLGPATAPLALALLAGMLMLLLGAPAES

[22] = biological target: T6, Alkaline phosphatase, tissue-nonspecific isozyme (Homo sapiens, UniProt P05186); assay: TNAP enzyme activators, dose response, selectivity assay for human IAP activator project, biochemical, TNAP isozyme, human IAP uHTS hits (AID 488886); format: functional;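 note: potency of compounds raising TNAP activity as a selectivity check on IAP activators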
T6 sequence (P05186 whole entry): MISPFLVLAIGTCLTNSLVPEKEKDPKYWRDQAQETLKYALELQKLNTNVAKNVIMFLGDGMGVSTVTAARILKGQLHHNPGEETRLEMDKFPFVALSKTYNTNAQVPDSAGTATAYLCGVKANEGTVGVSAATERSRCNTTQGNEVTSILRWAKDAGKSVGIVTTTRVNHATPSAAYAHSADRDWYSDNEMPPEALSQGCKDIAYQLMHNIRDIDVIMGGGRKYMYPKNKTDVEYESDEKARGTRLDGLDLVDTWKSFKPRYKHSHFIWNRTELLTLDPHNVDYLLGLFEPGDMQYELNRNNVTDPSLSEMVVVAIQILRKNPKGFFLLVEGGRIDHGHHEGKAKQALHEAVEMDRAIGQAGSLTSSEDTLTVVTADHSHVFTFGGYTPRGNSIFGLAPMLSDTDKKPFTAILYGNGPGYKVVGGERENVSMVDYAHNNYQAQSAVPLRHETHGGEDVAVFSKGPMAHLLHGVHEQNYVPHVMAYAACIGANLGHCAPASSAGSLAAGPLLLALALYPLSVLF

[23] = biological target: T7, Intestinal-type alkaline phosphatase (Homo sapiens, UniProt P09923); assay: human intestinal alkaline phosphatase activators, dose response, biochemical, luminescence, uHTS hits (AID 463120); format: functional
T7 sequence (P09923 whole entry): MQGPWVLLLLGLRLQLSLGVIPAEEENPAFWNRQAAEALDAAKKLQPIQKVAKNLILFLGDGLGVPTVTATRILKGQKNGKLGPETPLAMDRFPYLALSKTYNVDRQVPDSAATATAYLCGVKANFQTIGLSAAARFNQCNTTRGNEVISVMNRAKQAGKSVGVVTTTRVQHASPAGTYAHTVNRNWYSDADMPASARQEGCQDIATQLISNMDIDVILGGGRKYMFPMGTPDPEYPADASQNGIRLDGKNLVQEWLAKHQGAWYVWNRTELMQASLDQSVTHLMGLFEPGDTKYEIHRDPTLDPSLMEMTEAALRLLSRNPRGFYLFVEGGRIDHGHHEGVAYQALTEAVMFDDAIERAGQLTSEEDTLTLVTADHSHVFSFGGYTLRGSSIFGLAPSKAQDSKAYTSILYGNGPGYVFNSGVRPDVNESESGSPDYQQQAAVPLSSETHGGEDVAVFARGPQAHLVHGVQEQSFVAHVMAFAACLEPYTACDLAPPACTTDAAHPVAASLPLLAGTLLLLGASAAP

[24] = biological target: T7, Intestinal-type alkaline phosphatase; assay: human IAP activators, dose response, biochemical, luminescent, uHTS hits, set 2 (AID 488817); format: functional;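 note: potency of activators that raise enzyme activity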
[25] = biological target: T7, Intestinal-type alkaline phosphatase; assay: activation of human intestinal alkaline phosphatase – biochemical, dose response (AID 488873); format: functional
[26] = biological target: Cyclin-dependent kinase 5/CDK5 activator 1 (Homo sapiens, UniProt Q00535); assay: CDK5/p35 kinase inhibitors, dose response, biochemical, cherry-picked samples, set 2 (AID 504545)
[27] = biological target: T8, Endoribonuclease toxin MazF (Escherichia coli K-12, UniProt P0AE70); assay: MazF toxin RNase activators, dose response, biochemical, fluorescence, single-stranded RNA substrate, uHTS hits (AID 588481); format: functional
T8 sequence (P0AE70 whole entry): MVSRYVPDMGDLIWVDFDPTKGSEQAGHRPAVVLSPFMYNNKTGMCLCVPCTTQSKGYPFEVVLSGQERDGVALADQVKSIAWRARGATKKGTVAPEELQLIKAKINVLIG

Major prion protein = Major prion protein (Homo sapiens, UniProt P04156); format: functional, cell-based
Large T antigen = Large T antigen (Simian virus 40, UniProt P03070); format: functional, Betapolyomavirus macacae;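 note: Confirmatory-stage PubChem screen for compounds that inhibit SV40 T antigen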
[28] = biological target: T8, Endoribonuclease toxin MazF; assay: fluorescent RNA oligo signal without MazF, dose response, counter-screen for MazEF activator project, biochemical, fluorescence, single-stranded RNase substrate (AID 588502); format: functional
Fibrinogen beta chain [29] = biological target: T9, Fibrinogen beta chain (Homo sapiens, UniProt P02675); assay: Fluorescence polarization-based biochemical high throughput dose response assay to identify inhibitors that disrupt the binding of a cyclic peptide (Tn6) to the fibrin proteolytic product D-Dimer and fragment E complex [DD(E )].
T9 sequence (P02675 whole entry, the tested form may be a part): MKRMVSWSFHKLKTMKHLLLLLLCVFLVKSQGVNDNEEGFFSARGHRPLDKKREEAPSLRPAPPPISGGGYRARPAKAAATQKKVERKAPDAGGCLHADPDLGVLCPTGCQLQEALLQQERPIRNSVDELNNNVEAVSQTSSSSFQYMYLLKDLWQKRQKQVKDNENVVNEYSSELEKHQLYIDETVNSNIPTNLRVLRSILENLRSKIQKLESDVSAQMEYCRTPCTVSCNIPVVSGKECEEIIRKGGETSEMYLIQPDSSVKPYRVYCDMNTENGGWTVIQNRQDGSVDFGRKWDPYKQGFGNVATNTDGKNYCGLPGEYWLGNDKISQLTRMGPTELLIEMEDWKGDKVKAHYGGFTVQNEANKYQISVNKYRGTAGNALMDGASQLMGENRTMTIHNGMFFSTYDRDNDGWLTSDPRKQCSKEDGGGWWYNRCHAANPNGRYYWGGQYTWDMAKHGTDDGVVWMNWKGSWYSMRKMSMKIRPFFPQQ

[30] = biological target: T5, Intestinal-type alkaline phosphatase; assay: mouse intestinal alkaline phosphatase activators, dose response, biochemical, luminescence, uHTS hits (AID 488783); format: functional
Fibrinogen beta chain [31] = biological target: T9, Fibrinogen beta chain; assay: Fluorescence polarization-based biochemical high throughput dose response assay to identify inhibitors that disrupt the binding of a cyclic peptide (Tn7) to the fibrin proteolytic product D-Dimer and fragment E complex [DD(E )].
[32] = biological target: T6, Alkaline phosphatase, tissue-nonspecific isozyme; assay: TNAP enzyme activators, dose response, selectivity assay for mouse IAP activator project, biochemical, TNAP isozyme, mouse IAP uHTS hits (AID 488880); format: functional

SMILES: Cc1cc(NNC(=O)Nc2cccc(Cl)c2)nc2c1c(C)nn2C
- IC50 (Jurkat): 46.2 µM (inactive)
- IC50 [1]: > 80 µM (inactive)

SMILES: Cc1cc(O)c(-c2cc(O)c(C)cc2O)cc1O
- AC50 (Cytochrome P450 3A4 [2]): 1.58 µM (inconclusive)
- AC50 (Cytochrome P450 2D6): inconclusive
- EC50 [3]: 4.13 µM (active)
- IC50 [4]: > 66 µM (inactive)
- EC50 [5]: 2.37 µM (active)
- IC50 (Beta-galactosidase): > 66.6 µM (inactive)
- IC50 (Genome polyprotein): 39.8 µM (active)
- IC50 [6]: > 66 µM (inactive)
- IC50 [7]: 11.1 µM (active)

SMILES: Clc1ccc(N2N=C(c3cccs3)CC2c2ccco2)cc1 (stereo unspecified)
- EC50 [8]: 9.2 µM (active)
- EC50 [9]: 2.71 µM (active)
- EC50 [10]: 5.98 µM (active)

SMILES: O=C(Nc1ccc(N2CCOCC2)cc1)Nc1ccc2nc(-c3ccco3)c(-c3ccco3)nc2c1
- IC50 [11]: 1.91 µM (active)
- IC50 [12]: 3.55 µM (active)
- IC50 [13]: 0.894 µM (active)

SMILES: COc1cc(NC(=O)c2ccc([N+](=O)[O-])o2)ccc1NC(=O)c1ccco1
- IC50 (Exodeoxyribonuclease V): > 119 µM (inactive)
- AC50 (Paired box protein Pax-8): 3.75 µM (active)
- IC50 [14]: > 119 µM (inactive)

SMILES: CCOc1ccc(CSC(CC(=O)O)C(=O)O)cc1 (stereo unspecified)
- AC50 (Cytochrome P450 2C9): 15.8 µM (inconclusive)
- AC50 (Cytochrome P450 2C19): 14.1 µM (inconclusive)
- AC50 (Cytochrome P450 3A4 [15]): inconclusive

SMILES: CN(C)C(=O)c1cn(CCOc2ccccc2)c2ccccc12
- IC50 [16]: > 100 µM (inactive)
- IC50 [17]: > 100 µM (inactive)
- IC50 [18]: > 100 µM (inactive)
- IC50 [19]: > 100 µM (inactive)

SMILES: COc1ccc(Cn2c(SCC(=O)Nc3ccc(C)c(C)c3)nc3ccsc3c2=O)cc1
- IC50 [20]: > 32 µM (inactive)

SMILES: O=C(CCCCC(=O)NNC(=O)COc1ccccc1)NNC(=O)COc1ccccc1
- EC50 [21]: > 100 µM (inactive)
- EC50 [22]: 10 µM (active)
- EC50 [23]: 8.19 µM (active)
- EC50 [24]: 9.87 µM (active)

SMILES: Oc1cc2c(cc1O)C1c3ccc(O)c(O)c3OCC1(O)C2 (stereo unspecified) [HAEMATOXYLIN]
- EC50 [25]: 50 µM (active)
- AC50 [26]: 17.5 µM (active)
- EC50 [27]: 30.1 µM (inactive)
- IC50 (cells): > 138 µM (inactive)
- IC50 (Major prion protein): 14 µM (inactive)
- IC50 (Large T antigen): 4.66 µM (active)
- EC50 [28]: 72.8 µM (inactive)
- IC50 (Genome polyprotein): 17.4 µM (active)
- IC50 (Fibrinogen beta chain [29]): 9.33 µM (active)
- EC50 [30]: 62.1 µM (active)
- IC50 [13]: 3.44 µM (active)
- IC50 [7]: 66.5 µM (inactive)
- IC50 (Fibrinogen beta chain [31]): > 83.3 µM (inactive)
- EC50 [32]: 85.7 µM (active)
